The text below walks through data of the supplement of paper PMC10307832.

SMILES strings stand for the structures.

In one experiment the test system is NCI-H520. The experiment can be described thus: relative viability (nuclei count vs DMSO), 5 days (fraction); higher = more cells survive. The settings on record: first compound 8 µM. Put shortly: (§1)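 Each reported value is a median over duplicate plates. It expresses relative viability: treated-well nuclei count divided by vehicle-well nuclei count. Lung cancer cell lines in 1536-well plates were dosed by pin tool a day after seeding, alone with one drug or with a fixed anchor-drug dose plus five library-drug doses (not always all listed) in √10 steps, and nuclei were counted after 5 days.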
`C=C1C(=O)O[C@@H](CCCCCCCC)[C@@H]1C(=O)O` [C-75] + Nc1ncn([C@H]2C[C@H](O)[C@@H](CO)O2)c(=O)n1 [Decitabine] (partner 2 µM) had a relative viability of 0.356.

The test system of another experiment is NCI-H1993. The experiment is described as above. The following applies: first compound 0.08 µM. Put shortly: as §1
As for `Oc1nc(-c2ccc(C(F)(F)F)cc2)nc2c1CSCC2` [XAV939] + O=C(CCCCCCC(=O)Nc1ccccc1)NO [Vorinostat] (partner 1 µM), the relative viability amounted to 0.635.
Consider `Oc1nc(-c2ccc(C(F)(F)F)cc2)nc2c1CSCC2` [XAV939] + O=C(c1cc(Cc2n[nH]c(=O)c3ccccc23)ccc1F)N1CCN(C(=O)C2CC2)CC1 [Olaparib] (partner 8 µM), for which the relative viability is 1.01.
Same read-out and setting: then `Oc1nc(-c2ccc(C(F)(F)F)cc2)nc2c1CSCC2` [XAV939] + CC(=O)c1c(C)c2cnc(Nc3ccc(N4CCNCC4)cn3)nc2n(C2CCCC2)c1=O [Palbociclib] (partner 0.5 µM), with 0.617; and `C=C1C(=O)O[C@@H](CCCCCCCC)[C@@H]1C(=O)O` [C-75] + CC(=O)c1c(C)c2cnc(Nc3ccc(N4CCNCC4)cn3)nc2n(C2CCCC2)c1=O [Palbociclib] (partner 0.5 µM), with 0.618.
Still for that read-out and setting: then `C=C1C(=O)O[C@@H](CCCCCCCC)[C@@H]1C(=O)O` [C-75] + Nc1ncn([C@H]2C[C@H](O)[C@@H](CO)O2)c(=O)n1 [Decitabine] (partner 2 µM), with 0.695.

Staying with this experiment, now noted: first compound 0.253 µM.
The molecule `Oc1nc(-c2ccc(C(F)(F)F)cc2)nc2c1CSCC2` [XAV939] + O=C(CCCCCCC(=O)Nc1ccccc1)NO [Vorinostat] (partner 1 µM) yielded a relative viability of 0.625.
Same read-out and setting: in the case of `Oc1nc(-c2ccc(C(F)(F)F)cc2)nc2c1CSCC2` [XAV939] + O=C(c1cc(Cc2n[nH]c(=O)c3ccccc23)ccc1F)N1CCN(C(=O)C2CC2)CC1 [Olaparib] (partner 8 µM) it was 0.87.
In the case of `Oc1nc(-c2ccc(C(F)(F)F)cc2)nc2c1CSCC2` [XAV939] + CC(=O)c1c(C)c2cnc(Nc3ccc(N4CCNCC4)cn3)nc2n(C2CCCC2)c1=O [Palbociclib] (partner 0.5 µM), the relative viability is 0.474.
The same measure, in the same setting: then `C=C1C(=O)O[C@@H](CCCCCCCC)[C@@H]1C(=O)O` [C-75] + CC(=O)c1c(C)c2cnc(Nc3ccc(N4CCNCC4)cn3)nc2n(C2CCCC2)c1=O [Palbociclib] (partner 0.5 µM), with 0.778; and `C=C1C(=O)O[C@@H](CCCCCCCC)[C@@H]1C(=O)O` [C-75] + Nc1ncn([C@H]2C[C@H](O)[C@@H](CO)O2)c(=O)n1 [Decitabine] (partner 2 µM), with 0.685.

Still in this experiment, the particulars now being: first compound 0.8 µM.
As for `Oc1nc(-c2ccc(C(F)(F)F)cc2)nc2c1CSCC2` [XAV939] + O=C(CCCCCCC(=O)Nc1ccccc1)NO [Vorinostat] (partner 1 µM), the relative viability was 0.691.
Same read-out and setting: in the case of `Oc1nc(-c2ccc(C(F)(F)F)cc2)nc2c1CSCC2` [XAV939] + O=C(c1cc(Cc2n[nH]c(=O)c3ccccc23)ccc1F)N1CCN(C(=O)C2CC2)CC1 [Olaparib] (partner 8 µM) it was 1.1; in that of `Oc1nc(-c2ccc(C(F)(F)F)cc2)nc2c1CSCC2` [XAV939] + CC(=O)c1c(C)c2cnc(Nc3ccc(N4CCNCC4)cn3)nc2n(C2CCCC2)c1=O [Palbociclib] (partner 0.5 µM), 0.469.
Still for that read-out and setting: in the case of `C=C1C(=O)O[C@@H](CCCCCCCC)[C@@H]1C(=O)O` [C-75] + CC(=O)c1c(C)c2cnc(Nc3ccc(N4CCNCC4)cn3)nc2n(C2CCCC2)c1=O [Palbociclib] (partner 0.5 µM) it was 0.719; in that of `C=C1C(=O)O[C@@H](CCCCCCCC)[C@@H]1C(=O)O` [C-75] + Nc1ncn([C@H]2C[C@H](O)[C@@H](CO)O2)c(=O)n1 [Decitabine] (partner 2 µM), 0.605.

Staying with this experiment, now noted: first compound 2.53 µM.
Consider `Oc1nc(-c2ccc(C(F)(F)F)cc2)nc2c1CSCC2` [XAV939] + O=C(CCCCCCC(=O)Nc1ccccc1)NO [Vorinostat] (partner 1 µM), for which the relative viability is 0.789.
On the same count and under the same terms, in the case of `Oc1nc(-c2ccc(C(F)(F)F)cc2)nc2c1CSCC2` [XAV939] + O=C(c1cc(Cc2n[nH]c(=O)c3ccccc23)ccc1F)N1CCN(C(=O)C2CC2)CC1 [Olaparib] (partner 8 µM) it was 1.16; in that of `Oc1nc(-c2ccc(C(F)(F)F)cc2)nc2c1CSCC2` [XAV939] + CC(=O)c1c(C)c2cnc(Nc3ccc(N4CCNCC4)cn3)nc2n(C2CCCC2)c1=O [Palbociclib] (partner 0.5 µM), 0.5; in that of `C=C1C(=O)O[C@@H](CCCCCCCC)[C@@H]1C(=O)O` [C-75] + CC(=O)c1c(C)c2cnc(Nc3ccc(N4CCNCC4)cn3)nc2n(C2CCCC2)c1=O [Palbociclib] (partner 0.5 µM), 0.553.
With `C=C1C(=O)O[C@@H](CCCCCCCC)[C@@H]1C(=O)O` [C-75] + Nc1ncn([C@H]2C[C@H](O)[C@@H](CO)O2)c(=O)n1 [Decitabine] (partner 2 µM), the relative viability stood at 0.549.

Staying with this experiment, now noted: first compound 8 µM.
In turn, `C=C1C(=O)O[C@@H](CCCCCCCC)[C@@H]1C(=O)O` [C-75] + CC(=O)c1c(C)c2cnc(Nc3ccc(N4CCNCC4)cn3)nc2n(C2CCCC2)c1=O [Palbociclib] (partner 0.5 µM) had a relative viability of 0.642.
As for `C=C1C(=O)O[C@@H](CCCCCCCC)[C@@H]1C(=O)O` [C-75] + Nc1ncn([C@H]2C[C@H](O)[C@@H](CO)O2)c(=O)n1 [Decitabine] (partner 2 µM), the relative viability worked out at 0.571.

Another experiment concerns HOP-62. The description is as above. The settings on record: first compound 0.08 µM. The procedure, abridged: as §1
As to `Oc1nc(-c2ccc(C(F)(F)F)cc2)nc2c1CSCC2` [XAV939] + O=C(CCCCCCC(=O)Nc1ccccc1)NO [Vorinostat] (partner 1 µM), the relative viability worked out at 0.888.
In turn, `Oc1nc(-c2ccc(C(F)(F)F)cc2)nc2c1CSCC2` [XAV939] + O=C(c1cc(Cc2n[nH]c(=O)c3ccccc23)ccc1F)N1CCN(C(=O)C2CC2)CC1 [Olaparib] (partner 8 µM) showed a relative viability of 0.369.
Molecule `Oc1nc(-c2ccc(C(F)(F)F)cc2)nc2c1CSCC2` [XAV939] + CC(=O)c1c(C)c2cnc(Nc3ccc(N4CCNCC4)cn3)nc2n(C2CCCC2)c1=O [Palbociclib] (partner 0.5 µM) came in with a relative viability of 0.467.
Still for that read-out and setting: then `C=C1C(=O)O[C@@H](CCCCCCCC)[C@@H]1C(=O)O` [C-75] + CC(=O)c1c(C)c2cnc(Nc3ccc(N4CCNCC4)cn3)nc2n(C2CCCC2)c1=O [Palbociclib] (partner 0.5 µM), with 0.46; and `C=C1C(=O)O[C@@H](CCCCCCCC)[C@@H]1C(=O)O` [C-75] + Nc1ncn([C@H]2C[C@H](O)[C@@H](CO)O2)c(=O)n1 [Decitabine] (partner 2 µM), with 0.22.

The experiment is the same for the next values; noted with them: first compound 0.253 µM.
As for `Oc1nc(-c2ccc(C(F)(F)F)cc2)nc2c1CSCC2` [XAV939] + O=C(CCCCCCC(=O)Nc1ccccc1)NO [Vorinostat] (partner 1 µM), the relative viability turned out to be 0.525.
On the same count and under the same terms, in the case of `Oc1nc(-c2ccc(C(F)(F)F)cc2)nc2c1CSCC2` [XAV939] + O=C(c1cc(Cc2n[nH]c(=O)c3ccccc23)ccc1F)N1CCN(C(=O)C2CC2)CC1 [Olaparib] (partner 8 µM) it was 0.351.
